Measurements from PubChem BioAssay AID463074 (Broad Institute, 2010).
Active and inactive are the calls of the source.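 The calls were made as follows: active = AC50 no more than tenfold above the top dose tested, or full inhibition at every dose with a flat fit (cut at about 19 µM in these data); inconclusive = flat curve fit with inhibition between 30% and 70%, or poor fit; inactive = AC50 more than tenfold above the top dose tested.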

System: HMLE_sh_eGFP viability, CellTiter-Glo luminescence, 72 h
Test: cytotoxicity in HMLE control line with eGFP shRNA, dose response, counter-screen for HMLE_sh_ECad selective toxicity project, cell-based, HMLE_sh_eGFP, luminescence (AID 463074);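 also: counterscreen control line to flag general toxicity for the HMLE_sh_ECad screen; potency for loss of viability as luminescence drops below DMSO wells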

SMILES: Cc1cccc(NC(=O)CCC(=O)N/N=C/c2ccc(O)cc2O)c1
- AC50: 10.6 µM

SMILES: CCCCn1c(-c2cccc(C)c2)nc2cc3[nH]c(=O)c(C(C)C)nc3cc21
- AC50: 4.64 µM

SMILES: CC1(C)CN(c2ccccc2)N(C(=O)c2ccc(C#N)cc2)C1=O
- AC50: 4.31 µM

SMILES: Cc1cccc(NC(=O)c2cc(-c3cc(C)cc(C)c3O)n[nH]2)c1
- AC50: 4.2 µM

SMILES: O=S(=O)(c1ccc(Cl)cc1)N1CCC(n2cnc3cc(C(F)(F)F)ccc32)CC1
- AC50: 4 µM

SMILES: C=C1[C@@H](O)[C@@H]2O[C@]3(CC[C@H](/C=C/[C@@H](C)[C@@H]4CC(C)=CC5(O[C@H](C[C@@](C)(O)C(=O)OC)CC[C@H]5O)O4)O3)CC[C@H]2O[C@@H]1[C@@H](O)C[C@H](C)[C@H]1OC2(CCCCO2)CC[C@H]1C (stereo partly drawn)
- AC50: < 0.16 µM

SMILES: N#Cc1c([N+](=O)[O-])cc([N+](=O)[O-])cc1S(=O)(=O)Cc1ccccc1
- AC50: 3.62 µM

SMILES: C=CCn1c(Sc2ncc([N+](=O)[O-])s2)n[nH]c1=O
- AC50: 3.59 µM

SMILES: COc1cccc(/C=N/Nc2ncc(C(F)(F)F)cc2Cl)c1O
- AC50: 0.665 µM

SMILES: COc1cc2nc(Nc3ccc(C)c(Cl)c3)nc(N)c2cc1OC
- AC50: 6.97 µM

SMILES: CCc1ccc2nc(N(CCCN(C)C)C(=O)c3ccc(S(=O)(=O)N4CCCc5ccccc54)cc3)sc2c1
- AC50: 6.98 µM

SMILES: CCC1CSC(Nc2ccc(C(=O)/C=C/c3cccc(C)c3)cc2)=N1 (stereo not drawn)
- AC50: 5.56 µM

SMILES: O=C/C=C/c1c(-c2ccccc2)cc2oc3ccccc3cc1-2
- AC50: 9.18 µM

SMILES: CC(=O)Nc1ccc(NC(=O)CSc2ncc(C(=O)Nc3ccccc3)c(=O)n2C)cc1
- AC50: 5.44 µM

SMILES: Cc1ccc(-c2csc(-c3c[nH]c4ccccc34)n2)c(C)c1
- AC50: 4.19 µM

SMILES: O=C(N/N=C/c1ccc2c(c1)OCO2)c1ccc(COCC(F)(F)C(F)F)cc1
- AC50: 1.64 µM

SMILES: O=C(Nc1cnn(C23CC4CC(CC(C4)C2)C3)c1)c1cc(-c2ccccc2)on1
- AC50: 11.4 µM

SMILES: C=C(C)COc1ccc(-c2n[nH]c(C)c2-c2ccc(OC)cc2)c(O)c1
- AC50: 4.47 µM

SMILES: N#C/C(=C/c1cn(-c2ccccc2)nc1-c1cccc(OCc2ccc(F)cc2)c1)C(=O)NCCCn1ccnc1
- AC50: 3.4 µM

SMILES: NS(=O)(=O)c1ccc(N/N=C/c2cn(-c3ccccc3)nc2-c2cccs2)c([N+](=O)[O-])c1
- AC50: 1.9 µM

SMILES: CC1(C)CC2CC(C)(CN2/C=N/c2sc3c(c2C#N)CC(C)(C)NC3(C)C)C1 (stereo not drawn)
- AC50: 2.59 µM

SMILES: CCOC(=O)C(=NCCCN1CCOCC1)NNc1cccc(C(F)(F)F)c1
- AC50: 9.13 µM

SMILES: Cc1nc(SCc2nc3ccc(C(F)(F)F)cc3[nH]2)c2oc3ccccc3c2n1
- AC50: 5.23 µM

SMILES: Clc1cc2cccnc2c2ncccc12
- AC50: 3.56 µM

SMILES: COc1cc(/C=C(/C#N)c2nc3ccccc3[nH]2)ccc1OCC(=O)Nc1ccccc1C
- AC50: 1.06 µM

SMILES: COc1ccc(CN2C(=O)c3cccnc3C2Nc2cc(Cl)ccc2OC)cc1 (stereo not drawn)
- AC50: > 19.5 µM (inactive)

SMILES: O=C(Nc1cc(S(=O)(=O)Nc2ccc(Cl)cc2)ccc1N1CCCCC1)c1ccc(F)cc1
- AC50: 8.97 µM

SMILES: CCCOc1ccc(/C=N/Nc2cccc([N+](=O)[O-])c2)c(O)c1
- AC50: 3.42 µM

SMILES: Cc1ccccc1CNc1ccc(C(CC(N)=O)NC(=O)c2ccc(Br)cc2)cc1[N+](=O)[O-] (stereo not drawn)
- AC50: 3.96 µM

SMILES: CNc1nc(SCc2ccccc2Cl)nc2c1CCCC2
- AC50: 8.77 µM

SMILES: CCOC(=O)c1c(NC(C)=O)sc2c1CCC(C=O)=C2Sc1ccccc1
- AC50: 3.63 µM

SMILES: COc1ccc(C(=O)CSc2nnc(CN3CCCCC3)n2-c2ccc(Cl)cc2)cc1OC
- AC50: 9.46 µM

SMILES: O=c1cc(-c2ccc(O)cc2)oc2ccc3ccccc3c12
- AC50: 7.19 µM

SMILES: COc1cc(OC)cc(C(=O)Nc2ccc(Nc3ccccc3)cc2)c1
- AC50: 7.41 µM

SMILES: Cc1cc(=O)[nH]c(N/N=C/c2ccc(-c3ccc(F)cc3)o2)n1
- AC50: 18.1 µM

SMILES: COc1ccc(CNC(=O)c2c(N)n(CCCN3CCOCC3)c3nc4ccccc4nc23)cc1
- AC50: 6.67 µM

SMILES: CCCCNc1c(-c2ccc(SC(C)CC)cc2)nc2ccccn12 (stereo not drawn)
- AC50: 4.06 µM

SMILES: CCNc1nc(Oc2c(Cl)cccc2Cl)cc(C(F)(F)F)n1
- AC50: 13.1 µM

SMILES: Cc1ccc(CN2CCSc3ccc(C(=O)NCc4ccco4)cc32)cc1
- AC50: > 19.5 µM (inactive)

SMILES: COc1cc(CNc2ccc(CNc3ncn[nH]3)cc2)ccc1OCc1ccccc1
- AC50: 0.708 µM

SMILES: CC(C)(C)c1ccc(C(=O)CC(Sc2ccc(Cl)cc2)C(=O)O)cc1 (stereo not drawn)
- AC50: 9.07 µM

SMILES: COc1ccc2sc(-c3ccccc3OC)c(-c3ccc(OCCN4CCCC4)cc3)c2c1
- AC50: 3.74 µM

SMILES: C[C@@H]1O[C@@H](O[C@H]2C[C@@H](O)[C@]3(CO)[C@H]4[C@H](O)C[C@]5(C)[C@@H](C6COC(=O)C6)CC[C@]5(O)[C@@H]4CC[C@]3(O)C2)[C@H](O)[C@H](O)[C@H]1O (stereo partly drawn)
- AC50: 0.74 µM

SMILES: O=C(NCc1cccnc1)/C(=C\c1ccc(-c2cccc(Cl)c2)o1)S(=O)(=O)c1ccccc1
- AC50: 3.13 µM

SMILES: COc1c(CC=C(C)C)cc(C2CC(=O)c3c(O)cc(O)cc3O2)cc1CC=C(C)C (stereo not drawn)
- AC50: 3.65 µM

SMILES: CCOC(=O)c1c(CSc2ccccc2)n(C)c2cc(Br)c(OCC(O)CNC(CO)(CO)CO)cc12 (stereo not drawn)
- AC50: 1.84 µM

SMILES: CCOC(=O)C(=Cc1ccc(OCc2ccc([N+](=O)[O-])cc2)c(OC)c1)C(=O)OCC
- AC50: 3.03 µM

SMILES: CC[C@@H]1CC=C[C@H]2[C@H]1C(=O)N(Cc1ccccc1)[C@H]2c1ccoc1
- AC50: 7.03 µM

SMILES: CC(=O)Oc1ccc(-c2csc(Nc3ccc(Cl)cn3)n2)cc1
- AC50: 4.6 µM

SMILES: Cc1cc([N+](=O)[O-])nn1Cc1ccc(C(=O)N/N=C/c2ccc(O)cc2O)cc1
- AC50: 2.25 µM

SMILES: O=C(Nc1cccc(Cl)c1)Nc1csc([N+](=O)[O-])c1
- AC50: 5.64 µM

SMILES: Cc1ccc2nc(-c3ccccn3)c(Nc3ccccc3C)n2c1
- AC50: 5.04 µM

SMILES: Oc1ccccc1/C=N/Nc1nccnc1Cl
- AC50: 5.91 µM

SMILES: C=CCC[C@H](Cc1ccc(F)cc1)C(=O)O[C@H](CNC(=O)[C@@H](CC=C)CC(=O)N(CCO)Cc1ccccc1)c1ccccc1
- AC50: 7.4 µM

SMILES: O=C(Nc1cc(C(F)(F)F)ccc1N1CCCCC1)c1ccc(Br)o1
- AC50: 8.32 µM

SMILES: CC(=O)Oc1ccc(C#C/C=C2\c3ccccc3C(=O)N2c2ccccc2)cc1
- AC50: 4.92 µM

SMILES: Clc1ccc(-c2nnnn2-c2ccc(Cl)c(Cl)c2)cc1Cl
- AC50: 15.2 µM

SMILES: Clc1ccc(-c2ccc(/C=N/Nc3cc(N4CCOCC4)nc(N4CCOCC4)n3)o2)cc1
- AC50: 4.24 µM

SMILES: NC(=O)c1sc(-c2ccsc2)cc1NS(=O)(=O)c1ccc(C(F)(F)F)cc1
- AC50: 16.1 µM

SMILES: CCCc1nc(NC2CCCCC2)c(C#N)c2c1COC(C)(C)C2
- AC50: 7.68 µM

SMILES: CN1CCC(OC(=O)c2cccc(Cl)c2)CC1
- AC50: 3.33 µM

SMILES: CCCCc1oc2ccccc2c1C(=O)c1cc(I)c(OCCN(CC)CC)c(I)c1
- AC50: 6.92 µM

SMILES: O=C(Nc1ccc(CN2CCOCC2)cc1)c1ccc(-c2ccc(Cl)cc2Cl)o1
- AC50: 7.06 µM

SMILES: CCc1ccc(NC(=O)C(CC)Sc2nc3cc4c(cc3c(=O)n2Cc2ccco2)OCO4)cc1 (stereo not drawn)
- AC50: 13.1 µM

SMILES: C/C(=N\Nc1ccccc1)c1c(O)[nH]c(=O)[nH]c1=O
- AC50: 2.25 µM

SMILES: CC1=[N+](C)c2ccc3ccccc3c2C1(C)C
- AC50: > 19.5 µM (inactive)

SMILES: O=C(Nc1cccc(Cl)c1N1CCCCC1)c1ccc2c(c1)OCCO2
- AC50: 11.4 µM

SMILES: O/N=C(\c1ccc(Cl)cc1Cl)c1ncc(C(F)(F)F)cc1Cl
- AC50: 13.9 µM

SMILES: C=C(C)COc1ccc(-c2[nH]ncc2Oc2ccc(OC)cc2)c(O)c1
- AC50: 5.99 µM

SMILES: COc1cccc(Nc2nc(-c3ccccc3)nc3ccccc23)c1
- AC50: 7.67 µM

SMILES: COc1ccc(C(=O)Nc2cccc(/C=C/c3nc4ccccc4c(=O)[nH]3)c2)cc1
- AC50: 3.58 µM

SMILES: c1ccc(-c2nnc3sc(CN4CCc5ccccc54)cn23)cc1
- AC50: 3.51 µM

SMILES: O=S(=O)(Nc1ccc(-c2csc(-c3ccccc3)n2)cc1)c1ccccc1
- AC50: 5.92 µM

SMILES: Cc1ccc(-c2nnc(Sc3nc4ccccc4o3)c3ccccc23)cc1
- AC50: 6.74 µM

SMILES: c1ccc(-c2c(-c3ccccc3)n(Cc3ccco3)c3ncnc(NCCCn4ccnc4)c23)cc1
- AC50: 6.74 µM

SMILES: C/C(=N\OCc1nc2ccccc2c(=O)n1/N=C/c1cc([N+](=O)[O-])ccc1O)c1ccccc1
- AC50: 16 µM

SMILES: COc1ccc(CNCC(O)COc2ccc(C(C)(C)c3ccccc3)cc2)cc1 (stereo not drawn)
- AC50: 3.22 µM

SMILES: O=C(Nc1cccc(-c2csc(-c3ccccc3)n2)c1)c1cccs1
- AC50: 5.22 µM

SMILES: O=C(Cn1ncc(Cl)c(Cl)c1=O)NCC1CCCCC1
- AC50: 5.74 µM

SMILES: COc1ccc(-c2sc3ccccc3c2-c2ccc(O)cc2)cc1
- AC50: 6.43 µM

SMILES: CCNC(=S)N1N=C2c3ccccc3CCC2C1c1ccc(F)cc1 (stereo not drawn)
- AC50: 2.91 µM

SMILES: CCCc1cc(SCC(=O)Nc2c(C)n(C)n(-c3ccccc3)c2=O)n2c(nc3ccccc32)c1C#N
- AC50: > 19.5 µM (inactive)

SMILES: CCOC(=O)Nc1ccc(Cc2ccncc2)cc1
- AC50: > 19.5 µM (inactive)

SMILES: CC(C)C[C@H](CO)N(Cc1ccccc1)S(=O)(=O)N(Cc1ccccc1)[C@@H](CO)CC(C)C
- AC50: 3.49 µM

SMILES: CN(C)C(=O)/C(C#N)=C\c1cc(Br)c(Sc2ccc(Cl)cc2)o1
- AC50: 4.46 µM

SMILES: O=C1Nc2ccc(Cl)cc2[C@@](C#CC2CC2)(C(F)(F)F)O1
- AC50: 7.55 µM

SMILES: CNc1oc(-c2ccc(Cl)cc2)nc1P(=O)(c1ccccc1)c1ccccc1
- AC50: 9.43 µM

SMILES: O=C(NC(=S)Nc1cccc(Cl)c1N1CCCCC1)c1cccs1
- AC50: 6.92 µM

SMILES: C[C@]12CC[C@H]3[C@@H](CC[C@]4(O)C[C@@H](O)CC[C@]34C=O)[C@@]1(O)CC[C@@H]2C1=CC(=O)OC1
- AC50: 0.446 µM

SMILES: COc1ccccc1-c1cn[nH]c1-c1ccc(OCc2ccccc2F)cc1O
- AC50: 6.88 µM

SMILES: Cc1ccc(/C=C/C(=O)c2cc(Br)ccc2OC(=O)c2ccco2)cc1
- AC50: 5.92 µM

SMILES: CC(C)(C)OC(=O)N1CCC(NC(=O)c2[nH]cnc2C(=O)Nc2ccc(Cl)cc2)CC1
- AC50: 5.94 µM

SMILES: O=C(Nc1ccc(S(=O)(=O)N2CCOCC2)cc1)c1cc(-c2cc(Cl)ccc2O)n[nH]1
- AC50: 2.18 µM

SMILES: CCCC[C@@H](CN[C@H](C)CNC)NCC1CCC(C(C)(C)C)CC1 (stereo partly drawn)
- AC50: 6.37 µM

SMILES: NC(=O)c1cc([N+](=O)[O-])ccc1NCc1ccc(O)cc1
- AC50: 3.1 µM

SMILES: CCc1ccc(N=Nc2ccc(O)c3[nH]cnc23)cc1
- AC50: 2.06 µM

SMILES: O=S(=O)(c1ccc2ccccc2c1)N1CCN(c2ccc(O)cc2)CC1
- AC50: 8.59 µM

SMILES: O=C(Nc1ncc(S(=O)(=O)c2ccc([N+](=O)[O-])cc2)s1)c1ccc2ccccc2c1
- AC50: 3.61 µM

SMILES: COc1ccc2nc(NC(=O)c3cccc(-c4cc5ccccc5oc4=O)c3)sc2c1
- AC50: 4.88 µM

SMILES: Cc1nn(-c2ccccc2)c2nc(N)c(C#N)c(-c3ccc(C(C)(C)C)cc3)c12
- AC50: 3.24 µM

SMILES: CCOc1cc(/C=C2/SC(=S)N(Cc3ccccc3)C2=O)ccc1O
- AC50: 3.76 µM

SMILES: COc1cc(-c2nc(-c3ccc(NC(=O)c4ccc(Br)o4)cc3)no2)cc(OC)c1OC
- AC50: 3.5 µM

SMILES: CCCCNc1c(-c2ccc(OC)c(Sc3ccc(OC)cc3)c2)nc2ccccn12
- AC50: 4.55 µM
